Measurements published in PMC10044120, “Potent and selective covalent inhibition of the papain-like protease from SARS-CoV-2” (Nature Communications, 2023).
pEC50, pIC50: −log10 of the molar value. Where “and” joins values, the source holds several entries; their conditions need not be identical. Identical values can stand only once. Like-named read-outs stand apart in the source and are kept apart here.

What was measured:
[1] = system: Vero E6 cells; details: African green monkey, 48 h
[2] = in vitro; details: African green monkey, cytotoxicity, %cell viability
[3] = molecular target: PLpro (Severe acute respiratory syndrome coronavirus 2, UniProt P0DTD1); assay: Intact protein ESI-MS to assess covalent adduct formation; assay type: binding, SARS-CoV-2; parameters: unit not given here
[4] = system: SARS-CoV-2 isolate USA-WA1/2020; details: read-out: cytopathic effect, % cell viability, duplicate wells
[5] = molecular target: T1, PLpro from SARS-CoV-2 (Severe acute respiratory syndrome coronavirus 2, UniProt P0DTD1); assay: biochemical; assay type: biochemical; parameters: mean (kobs plot, Supplementary Figure 6 II): unit: min^-1
[6] = molecular target: T1, PLpro from SARS-CoV-2; assay: biochemical; assay type: biochemical; details: for remaining activity at 0.06 µM: inhibitor 0.06 uM; for remaining activity at 0.2 µM: inhibitor 0.20 uM; for pIC50: after 30-min incubation
[7] = system: SARS-CoV-2 isolate USA-WA1/2020; assay: microbe, parasite or virus in culture; details: for inhibition at 2.08 µM: Severe acute respiratory syndrome coronavirus 2, Vero C1008, read-out: cytopathic effect, % cell viability, [inhibitor] 2.08 uM
[8] = Metabolic stability in mouse liver microsomes; details: CD-1, mouse
[9] = Metabolic stability in mouse liver S9 fraction; details: CD-1, mouse
[10] = Metabolic stability in rat liver microsomes; details: Sprague-Dawley
[11] = Metabolic stability in rat liver S9 fraction; details: Sprague-Dawley
[12] = Metabolic stability in human liver microsomes
[13] = Metabolic stability in human liver S9 fraction
[14] = system: viral replication in Vero E6 cells; details: cited from earlier work

Question: Which results are given for `COC(=O)/C=C/C(=O)NNC(=O)CCc1ccc(NC(C)=O)cc1C(=O)N[C@H](C)c1cccc2ccccc12` [Compound 8, methyl-(R,E)-4-(2-(3-(4-acetamido-2-((1-(naphthalen-1-yl)ethyl)carbamoyl)phenyl)propanoyl)hydrazineyl)-4-oxobut-2-enoate]?
Answer: cytotoxicity, %cell viability ([1]; 2.08 µM): 78.830%; cytotoxicity, %cell viability ([1]; 8.33 µM): 82.620%; cytotoxicity, %cell viability ([1]; 16.67 µM): 76.260%; cytotoxicity, %cell viability ([1]; 33.33 µM): 75.370%; viability at 48 h, 2.08 µM [2]: 83.7%; viability at 48 h, 8.33 µM [2]: 87.2%; viability at 48 h, 16.67 µM [2]: 82.6%; viability at 48 h, 33.33 µM [2]: 75.6%; Measured adduct mass [3]: 531; inhibition ([4]; [inhibitor] 2.08 uM, 2.08 µM): 0.9%; inhibition ([4]; [inhibitor] 8.33 uM, 8.33 µM): 2.82%; kinact/KI [5]: 9000 M⁻¹ s⁻¹; remaining activity at 0.1 µM ([5]; 5 min, read-out: PLpro activity after preincubation, inhibitor 0.1 uM, preincubation 5 min): 79.5%; remaining activity at 0.1 µM ([5]; 10 min, read-out: PLpro activity after preincubation, inhibitor 0.1 uM, preincubation 10 min): 71.5%; remaining activity at 0.1 µM ([5]; 0.5 h, read-out: PLpro activity after preincubation, inhibitor 0.1 uM, preincubation 30 min): 66.2%; remaining activity at 0.1 µM ([5]; 1 h, read-out: PLpro activity after preincubation, inhibitor 0.1 uM, preincubation 60 min): 64.4%; remaining activity at 0.2 µM ([5]; 1 h, read-out: PLpro activity after preincubation, inhibitor 0.2 uM, preincubation 60 min): 12.6%; remaining activity at 0.1 µM ([5]; […], read-out: PLpro activity after preincubation, inhibitor 0.1 uM, preincubation 15 min): 66.3%; remaining activity at 0.1 µM ([5]; […], read-out: PLpro activity after preincubation, inhibitor 0.1 uM, preincubation 45 min): 72.5%; remaining activity at 0.1 µM ([5]; […], read-out: PLpro activity after preincubation, inhibitor 0.1 uM, preincubation 90 min): 44.6%; Time dep. (time-dependent inhibition) ([5]; fluorogenic peptide assay, varied preincubation time): Yes; mean (kobs plot, Supplementary Figure 6 II) ([5]; inhibitor 0.10 uM): 0.0091; mean (kobs plot, Supplementary Figure 6 II) ([5]; inhibitor 0.20 uM): 0.0652; remaining activity at 0.06 µM ([6]; 0.5 h): 89.5%; remaining activity at 0.2 µM ([6]; 0.5 h): 57.8%; pIC50 [6]: 6.64; inhibition at 2.08 µM ([7]; duplicate wells): 1.22%; inhibition at 8.33 µM ([7]; Severe acute respiratory syndrome coronavirus 2, Vero C1008, read-out: cytopathic effect, % cell viability, [inhibitor] 8.33 uM, duplicate wells): 4.63%

Question: For `Cc1ccccc1C(=O)N[C@H](C)c1cccc2ccccc12` [Compound 14, (R)-2-methyl-N-(1-(naphthalen-1-yl)ethyl)benzamide], which half-life [8] is on record?
Answer: 16 min

Question: And the microsomal CLint [8]?
Answer: 435 µL/min/mg

Question: And the half-life [9]?
Answer: 18 min

Question: What about the microsomal CLint [9] of the same molecule?
Answer: 128 µL/min/mg

Question: What about the “cytotoxicity, %cell viability” value ([1]; 2.08 µM) of the same molecule?
Answer: 96.55%

Question: What about the “cytotoxicity, %cell viability” value ([1]; 8.33 µM) of the same molecule?
Answer: 99.10%

Question: And the “cytotoxicity, %cell viability” value ([1]; 16.65 µM)?
Answer: 92.38%

Question: And the viability at 48 h, 2.08 µM [2]?
Answer: 100%

Question: And the viability at 48 h, 8.33 µM [2]?
Answer: 95.2%

Question: And the viability at 48 h, 16.65 µM [2]?
Answer: 95.7%

Question: What about the half-life [10] of the same molecule?
Answer: 21 min

Question: What about the microsomal CLint [10] of the same molecule?
Answer: 330 µL/min/mg

Question: What about the inhibition ([4]; [inhibitor] 2.08 uM, 2.08 µM) of the same molecule?
Answer: 7.39%

Question: And the inhibition ([4]; [inhibitor] 16.65 uM, 16.65 µM)?
Answer: 5.25%

Question: What about the half-life [11] of the same molecule?
Answer: 17 min

Question: And the microsomal CLint [11]?
Answer: 138 µL/min/mg

Question: What about the half-life [12] of the same molecule?
Answer: 41 min

Question: And the microsomal CLint [12]?
Answer: 171 µL/min/mg

Question: And the remaining activity at 0.02 µM ([6]; 0.5 h, inhibitor 0.02 uM)?
Answer: 96.3%

Question: And the remaining activity at 0.06 µM ([6]; 0.5 h)?
Answer: 94.2%

Question: What about the remaining activity at 0.2 µM ([6]; 0.5 h) of the same molecule?
Answer: 103%

Question: And the remaining activity at 2.01 µM ([6]; 0.5 h, inhibitor 2.01 uM)?
Answer: 90.5%

Question: What about the remaining activity at 6.34 µM ([6]; 0.5 h, inhibitor 6.34 uM) of the same molecule?
Answer: 77.4%

Question: What about the remaining activity at 20 µM ([6]; 0.5 h, inhibitor 20.00 uM) of the same molecule?
Answer: 56.2%

Question: What about the remaining activity at 200 µM ([6]; 0.5 h, inhibitor 200.00 uM) of the same molecule?
Answer: 40.8%

Question: And the pIC50 [6]?
Answer: 4.00

Question: What about the half-life [13] of the same molecule?
Answer: > 60 min

Question: And the microsomal CLint [13]?
Answer: < 38.5 µL/min/mg

Question: What about the inhibition at […] ([7]; Severe acute respiratory syndrome coronavirus 2, Vero C1008, read-out: cytopathic effect, % cell viability) of the same molecule?
Answer: 7.92% and 10.7%

Question: And the inhibition at 2.08 µM ([7]; duplicate wells)?
Answer: 11.3%

Question: And the inhibition at 16.65 µM ([7]; Severe acute respiratory syndrome coronavirus 2, Vero C1008, read-out: cytopathic effect, % cell viability, [inhibitor] 16.65 uM, duplicate wells)?
Answer: 7.05%

Question: And the pEC50 [14]?
Answer: 5.00
